Among the data in US20240270821A1, “GIP/GLP1/GCG TRI-RECEPTOR AGONISTS AND USES THEREOF” (priority 2023, published 2024) are EC50 values, retold here.

Type in all cases: cell-based
In assay [1] the target is T1, hGIPR (Homo sapiens, UniProt P48546).
T1 sequence (P48546 22-466): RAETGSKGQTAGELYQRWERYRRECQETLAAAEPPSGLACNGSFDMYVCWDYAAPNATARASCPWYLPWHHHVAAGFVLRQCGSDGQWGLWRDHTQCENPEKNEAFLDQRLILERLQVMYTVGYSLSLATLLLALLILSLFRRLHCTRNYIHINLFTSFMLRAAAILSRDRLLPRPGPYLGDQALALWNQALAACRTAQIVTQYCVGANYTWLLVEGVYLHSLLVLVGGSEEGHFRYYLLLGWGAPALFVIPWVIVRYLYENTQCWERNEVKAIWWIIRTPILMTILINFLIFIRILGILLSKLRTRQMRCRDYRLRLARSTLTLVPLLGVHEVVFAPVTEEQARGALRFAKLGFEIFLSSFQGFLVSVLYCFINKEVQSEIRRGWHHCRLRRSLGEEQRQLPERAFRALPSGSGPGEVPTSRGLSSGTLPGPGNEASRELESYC
The assay is described as follows: Functional cAMP activation in the presence of 0.1% casein (no HSA). The following applies: read-out: Relative cAMP EC50, hGIPR.

Assay [2] concerns the target T2, hGLP-1R (Homo sapiens, UniProt P43220). Described as above. The following applies: read-out: Relative cAMP EC50, hGLP-1R.
The next assay concerns the target human GcgR (Homo sapiens, UniProt P47871). The assay is described as follows: Functional cAMP activity in the presence of 1% HSA. The following applies: read-out: cAMP Rel EC50, hGcgR.
For assay [3], the target named is T2, hGLP-1R. The assay is described as follows: Functional cAMP activity in the presence of 1% HSA. Particulars: read-out: cAMP Rel EC50, hGLP-1R.
For assay [4], the target named is T1, hGIPR. Briefly: Functional cAMP activity in the presence of 1% HSA. Particulars: read-out: cAMP Rel EC50, hGIPR.
The next assay deals with hGcgR (Homo sapiens, UniProt P47871). Briefly: Functional cAMP activation in the presence of 0.1% casein (no HSA). Particulars: read-out: Relative cAMP EC50, hGcgR.
Setting [5] is: in the presence of 0.1% casein (no HSA), geometric mean.
Setting [6] is: in the presence of 0.1% casein (no HSA), geometric mean of relative EC50.
Where [7] appears, read: HEK-293 clonal cell line, 1% HSA, geometric mean of relative EC50.

Like-named read-outs stand apart in the source and are kept apart here. Starred links: 1 amine or outer side, 2 acyl side, 3 side chain; linkers in the order of their positions; H or OH if unused. Non-standard residues stand in square brackets, D forms with d. Groups on a side chain read outwards from the residue. No end group written: not given here. *: point of attachment. C20 diacid = O=C(O)CCCCCCCCCCCCCCCCCCC(=O)*; C18 diacid = O=C(O)CCCCCCCCCCCCCCCCC(=O)*; αMePhe(2-F) = C[C@](N)(Cc1ccccc1F)C(=O)O; γGlu = O=C(O)[C@H](CCC(=O)[*:2])N[*:1]; αMe4Pal = C[C@](N)(Cc1ccncc1)C(=O)O; αMeY = C[C@](N)(Cc1ccc(O)cc1)C(=O)O; Hyp = O=C(O)[C@@H]1C[C@@H](O)CN1; 4Pal = N[C@@H](Cc1ccncc1)C(=O)O; αMeL = CC(C)C[C@](C)(N)C(=O)O; αMeS = C[C@](N)(CO)C(=O)O; Orn = NCCC[C@H](N)C(=O)O; AEEA = NCCOCCOCC(=O)O; Aib = CC(C)(N)C(=O)O
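Throughout, for Relative cAMP EC50, hGIPR: intracellular cAMP rise after 30 min at 37 °C read by HTRF against a standard curve, scaled between buffer alone (0%) and top control ligand concentration (100%), four-parameter fit.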
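Throughout, for Relative cAMP EC50, hGLP-1R: intracellular cAMP rise after 30 min at 37 °C read by HTRF, normalized between buffer only (0%) and maximal control ligand (100%), four-parameter variable-slope fit.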
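Throughout, for Relative cAMP EC50, hGcgR: intracellular cAMP rise after 30 min at 37 °C, read by HTRF against a cAMP standard curve, scaled from buffer only (0%) to maximal control ligand response (100%).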

T2 sequence (P43220 24-463): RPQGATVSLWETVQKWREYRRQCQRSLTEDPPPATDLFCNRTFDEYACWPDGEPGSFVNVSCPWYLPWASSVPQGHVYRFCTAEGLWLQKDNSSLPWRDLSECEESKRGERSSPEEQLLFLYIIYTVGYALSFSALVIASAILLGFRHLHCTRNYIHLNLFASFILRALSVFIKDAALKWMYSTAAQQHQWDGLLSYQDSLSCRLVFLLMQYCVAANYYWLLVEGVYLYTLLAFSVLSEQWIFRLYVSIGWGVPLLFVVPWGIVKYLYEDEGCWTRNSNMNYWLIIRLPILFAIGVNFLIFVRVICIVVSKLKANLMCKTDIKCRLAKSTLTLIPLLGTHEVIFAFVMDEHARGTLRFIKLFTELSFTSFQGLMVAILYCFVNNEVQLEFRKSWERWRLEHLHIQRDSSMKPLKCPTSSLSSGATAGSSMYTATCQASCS
Sequence of hGcgR (P47871 26-477): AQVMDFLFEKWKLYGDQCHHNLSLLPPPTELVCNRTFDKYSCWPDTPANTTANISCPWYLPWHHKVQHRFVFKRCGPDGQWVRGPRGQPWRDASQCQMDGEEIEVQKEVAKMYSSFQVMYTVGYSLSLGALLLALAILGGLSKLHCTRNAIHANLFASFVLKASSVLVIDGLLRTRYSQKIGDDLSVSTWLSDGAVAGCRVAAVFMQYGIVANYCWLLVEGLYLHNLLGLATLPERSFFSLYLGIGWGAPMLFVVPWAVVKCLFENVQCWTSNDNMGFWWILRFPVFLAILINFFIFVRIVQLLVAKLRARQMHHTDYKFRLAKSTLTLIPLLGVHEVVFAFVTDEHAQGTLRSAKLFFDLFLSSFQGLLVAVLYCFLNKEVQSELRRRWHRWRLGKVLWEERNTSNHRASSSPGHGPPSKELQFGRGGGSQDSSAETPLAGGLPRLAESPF
Sequence of human GcgR (P47871 26-477): as above

“H-Y[Aib]QGT[αMePhe(2-F)]TSD[4Pal][αMeS]I[αMeL]LD[Orn]K([γGlu-γGlu-C18 diacid])AQ[Aib][Orn]FI[dE][αMeY]LSEGGPSSGEPPPSGTEE-NH2 [Example 561]”: the EC50 on hGIPR [1] is 0.212 nM; at hGLP-1R [2] it was 1.13 nM; on human GcgR, 544 nM; at hGLP-1R [3] it was 76.1 nM; on hGIPR [4] it was 10.1 nM; on hGcgR it was 5.43 nM.

Consider “H-Y[Aib]QGTFTSDFS[Orn][αMeL]LDKK([AEEA-γGlu-C18 diacid])AQ[Aib]AFIEYLLEGGPSSGAPP[Hyp]GGS-NH2 [Example 237]”, for which the EC50 at hGIPR [1] (setting [5]) is 0.228 nM; at hGLP-1R [2] (setting [5]), 3.4 nM; at human GcgR, 441 nM; on hGLP-1R [3], 291 nM; at hGIPR [4] it was 30.9 nM; on hGcgR (setting [5]), 3.77 nM.

For “Y[Aib]QGT[αMePhe(2-F)]TSD[4Pal][αMeS]I[αMeL]LD[Orn]K([γGlu-γGlu-C18 diacid])AQ[αMe4Pal]EFI[dE][αMeY]LIEGGPSSGEPPPEGGGE-NH2 [Example 762]”, the EC50 on hGIPR [1] stood at 0.00882 nM; on hGLP-1R [2] it was 0.273 nM; at human GcgR, 119 nM; on hGLP-1R [3], 27.6 nM; on hGIPR [4] it was 0.692 nM; at hGcgR it was 3.09 nM.

As to “H-Y[Aib]QGTFTSD[4Pal]SQ[αMeL]LDKK([γGlu-γGlu-C18 diacid])AQ[Aib]AFIE[αMeY]LLEGGPSSGAPPPSGSEE-NH2 [Example 945]”, the EC50 came to 0.246 nM at hGIPR [1] (setting [5]); 3.9 nM on hGLP-1R [2] (setting [5]); 2420 nM at human GcgR; 555 nM at hGLP-1R [3]; 42.5 nM on hGIPR [4]; 18 nM at hGcgR (setting [5]).

Regarding “Y[Aib]QGT[αMePhe(2-F)]TSD[4Pal][αMeS]I[αMeL]LD[Orn]K([γGlu-γGlu-C18 diacid])AQ[αMe4Pal]EFI[dE][αMeY]LIEGGPSSGAPPPSGE-NH2 [Example 1150]”, the EC50 on hGIPR [1] (setting [5]) is 0.0069 nM; at hGLP-1R [2] (setting [5]), 0.278 nM; at human GcgR, 161 nM; at hGLP-1R [3], 30 nM; at hGIPR [4] it was 0.583 nM; on hGcgR (setting [5]) it was 1.17 nM.

As to “H-Y[Aib]QGTFTSD[4Pal]SQ[αMeL]LDKK([AEEA-γGlu-C18 diacid])AQ[αMe4Pal]AFIEYLIE[Aib]GPSSGAPPPSGSE-NH2 [Example 886]”, the EC50 at hGIPR [1] (setting [5]) is 0.149 nM; at hGLP-1R [2] (setting [5]) it was 2.7 nM; at human GcgR, 540 nM; at hGLP-1R [3] it was 271 nM; on hGIPR [4], 26.5 nM; at hGcgR (setting [5]) it was 4.13 nM.

As to “H-Y[Aib]QGT[αMePhe(2-F)]TSD[4Pal][αMeS]I[αMeL]LD[Orn]K([AEEA-AEEA-γGlu-C18 diacid])AQ[Aib][Orn]FIEYLIEGGPSSGEPPPSEG-NH2 [Example 491]”, the EC50 on hGIPR [1] was determined as 0.0126 nM; on hGLP-1R [2] it was 0.17 nM; on human GcgR it was 159 nM; at hGLP-1R [3], 9.55 nM; at hGIPR [4] it was 0.688 nM; on hGcgR it was 1.58 nM.

On to `CC[C@H](C)[C@H](NC(=O)[C@H](Cc1ccccc1)NC(=O)[C@H](CCCN)NC(=O)C(C)(C)NC(=O)[C@H](CCC(N)=O)NC(=O)[C@H](C)NC(=O)[C@H](CCCCNC(=O)[C@@H](CCC(=O)O)NC(=O)CC[C@H](NC(=O)CCCCCCCCCCCCCCCCC(=O)O)C(=O)O)NC(=O)[C@H](CCCN)NC(=O)[C@H](CC(=O)O)NC(=O)[C@H](CC(C)C)NC(=O)[C@](C)(CC(C)C)NC(=O)[C@@H](NC(=O)[C@](C)(CO)NC(=O)[C@H](Cc1ccncc1)NC(=O)[C@H](CC(=O)O)NC(=O)[C@H](CO)NC(=O)[C@@H](NC(=O)[C@](C)(Cc1ccccc1F)NC(=O)[C@@H](NC(=O)CNC(=O)[C@H](CCC(N)=O)NC(=O)C(C)(C)NC(=O)[C@@H](N)Cc1ccc(O)cc1)[C@@H](C)O)[C@@H](C)O)[C@@H](C)CC)C(=O)N[C@H](CCC(=O)O)C(=O)N[C@@](C)(Cc1ccc(O)cc1)C(=O)N[C@@H](CC(C)C)C(=O)N[C@@H](CCC(N)=O)C(=O)N[C@@H](CCC(=O)O)C(=O)NCC(=O)NCC(=O)N1CCC[C@H]1C(=O)N[C@@H](CO)C(=O)N[C@@H](CO)C(=O)NCC(=O)N[C@@H](CCC(=O)O)C(=O)N1CCC[C@H]1C(=O)N1CCC[C@H]1C(=O)N1CCC[C@H]1C(=O)N[C@@H](CCC(=O)O)C(=O)NCC(=O)N[C@H](C(=O)N[C@@H](CCC(=O)O)C(=O)N[C@@H](CCC(=O)O)C(=O)N[C@@H](CCC(=O)O)C(N)=O)[C@@H](C)O` [Example 596], for which the EC50 stood at 0.0455 nM on hGIPR [1]; 0.592 nM at hGLP-1R [2]; 385 nM on human GcgR; 36.6 nM on hGLP-1R [3]; 1.98 nM at hGIPR [4]; 5.71 nM at hGcgR.

“Y[Aib]QGTFTSDFS[Orn][αMeL]LDKK([AEEA-γGlu-C18 diacid])AQ[Aib]AFIEYLIE[Aib]GPSSGAPPPSGS-NH2 [Example 796]”: the EC50 at hGIPR [1] (setting [5]) was 0.098 nM; at hGLP-1R [2] (setting [5]), 0.602 nM; at human GcgR it was 1000 nM; on hGLP-1R [3], 125 nM; at hGIPR [4], 17.5 nM; at hGcgR (setting [5]) it was 5.3 nM.

`CC[C@H](C)[C@H](NC(=O)[C@H](Cc1ccccc1)NC(=O)[C@H](C)NC(=O)C(C)(C)NC(=O)[C@H](CCC(N)=O)NC(=O)[C@H](C)NC(=O)[C@H](CCCCNC(=O)CC[C@H](NC(=O)CC[C@H](NC(=O)CCCCCCCCCCCCCCCCC(=O)O)C(=O)O)C(=O)O)NC(=O)[C@H](CCCCN)NC(=O)[C@H](CC(=O)O)NC(=O)[C@H](CC(C)C)NC(=O)[C@](C)(CC(C)C)NC(=O)[C@H](CCCN)NC(=O)[C@H](CO)NC(=O)[C@H](Cc1ccccc1)NC(=O)[C@H](CC(=O)O)NC(=O)[C@H](CO)NC(=O)[C@@H](NC(=O)[C@H](Cc1ccccc1)NC(=O)[C@@H](NC(=O)CNC(=O)[C@H](CCC(N)=O)NC(=O)C(C)(C)NC(=O)[C@@H](N)Cc1ccc(O)cc1)[C@@H](C)O)[C@@H](C)O)C(=O)N[C@@H](CCC(=O)O)C(=O)N[C@@H](Cc1ccc(O)cc1)C(=O)N[C@@H](CC(C)C)C(=O)N[C@@H](CC(C)C)C(=O)N[C@@H](CCC(=O)O)C(=O)NCC(=O)NCC(=O)N1CCC[C@H]1C(=O)N[C@@H](CO)C(=O)N[C@@H](CO)C(=O)NCC(=O)N[C@@H](C)C(=O)N1CCC[C@H]1C(=O)N1CCC[C@H]1C(=O)N1CCC[C@H]1C(=O)N[C@@H](CO)C(=O)NCC(=O)N[C@@H](CO)C(N)=O` [Example 199]: the EC50 came out at 0.232 nM on hGIPR [1] (setting [5]); 4.91 nM at hGLP-1R [2] (setting [5]); 1000 nM on human GcgR; 1060 nM at hGLP-1R [3]; 41.6 nM on hGIPR [4]; 5.8 nM at hGcgR (setting [5]).

For “H-Y[Aib]QGTFTSDFSK[αMeL]LDKK([AEEA-γGlu-C20 diacid])AQ[Aib]AFIEYLLEGGPSSGAPPP[γGlu]EG-NH2 [Example 52]”, the EC50 stood at 0.449 nM at hGIPR [1] (setting [5]); 5.18 nM at hGLP-1R [2] (setting [5]); 1740 nM on human GcgR; 1250 nM at hGLP-1R [3]; 111 nM on hGIPR [4]; 5.84 nM at hGcgR (setting [5]).

Turning to “Y[Aib]QGT[αMePhe(2-F)]TSD[4Pal][αMeS]ILLD[Orn]K([γGlu-γGlu-C18 diacid])AQ[Aib][Orn]FI[dE]YLIEGGPSSGEPPPSETE-NH2 [Example 555]”, the EC50 was found to be 0.0601 nM on hGIPR [1] (setting [6]); 0.445 nM at hGLP-1R [2] (setting [6]); 274 nM on human GcgR (setting [7]); 42 nM on hGLP-1R [3] (setting [7]); 5.31 nM on hGIPR [4] (setting [7]); 3.56 nM on hGcgR (setting [6]).

As for “H-Y[Aib]QGTFTSDFS[Orn][αMeL]LDKK([AEEA-γGlu-C18 diacid])AQ[Aib]AFIEYLLEGGPSSGAPPPEGT-NH2 [Example 160]”, the concentration for a half-maximal effect (EC50) came out at 0.354 nM on hGIPR [1] (setting [5]); 5.39 nM at hGLP-1R [2] (setting [5]); 479 nM at human GcgR; 482 nM at hGLP-1R [3]; 44.4 nM on hGIPR [4]; 4.32 nM on hGcgR (setting [5]).

For “H-Y[Aib]QGT[αMePhe(2-F)]TSD[4Pal]SILLDKK([γGlu-γGlu-C18 diacid])AQ[Aib]AFIE[αMeY]LEEGGPSSGAPPPSGTE-NH2 [Example 551]”, the EC50 on hGIPR [1] was 0.0173 nM; on hGLP-1R [2], 0.303 nM; on human GcgR, 210 nM; on hGLP-1R [3] it was 38.2 nM; at hGIPR [4], 1.88 nM; at hGcgR, 1.74 nM.

As a reminder, the EC50 is the concentration giving half of the maximal effect.
